This is an account of results in publication PMC5513037, “Examining the influence of specificity ligands and ATP-competitive ligands on the overall effectiveness of bivalent kinase inhibitors” (Proteome Science, 2017).

Structures are written as SMILES.

Common to all, as to assay: KAM-matrix competition in K562 lysate
What all share (type): binding

The target in one experiment is T1, RPS6KC1 (Homo sapiens, UniProt Q96S38).
T1 construct: endogenous in cells; host or cells: K562 cell lysate
T1 sequence (Q96S38 1-1066): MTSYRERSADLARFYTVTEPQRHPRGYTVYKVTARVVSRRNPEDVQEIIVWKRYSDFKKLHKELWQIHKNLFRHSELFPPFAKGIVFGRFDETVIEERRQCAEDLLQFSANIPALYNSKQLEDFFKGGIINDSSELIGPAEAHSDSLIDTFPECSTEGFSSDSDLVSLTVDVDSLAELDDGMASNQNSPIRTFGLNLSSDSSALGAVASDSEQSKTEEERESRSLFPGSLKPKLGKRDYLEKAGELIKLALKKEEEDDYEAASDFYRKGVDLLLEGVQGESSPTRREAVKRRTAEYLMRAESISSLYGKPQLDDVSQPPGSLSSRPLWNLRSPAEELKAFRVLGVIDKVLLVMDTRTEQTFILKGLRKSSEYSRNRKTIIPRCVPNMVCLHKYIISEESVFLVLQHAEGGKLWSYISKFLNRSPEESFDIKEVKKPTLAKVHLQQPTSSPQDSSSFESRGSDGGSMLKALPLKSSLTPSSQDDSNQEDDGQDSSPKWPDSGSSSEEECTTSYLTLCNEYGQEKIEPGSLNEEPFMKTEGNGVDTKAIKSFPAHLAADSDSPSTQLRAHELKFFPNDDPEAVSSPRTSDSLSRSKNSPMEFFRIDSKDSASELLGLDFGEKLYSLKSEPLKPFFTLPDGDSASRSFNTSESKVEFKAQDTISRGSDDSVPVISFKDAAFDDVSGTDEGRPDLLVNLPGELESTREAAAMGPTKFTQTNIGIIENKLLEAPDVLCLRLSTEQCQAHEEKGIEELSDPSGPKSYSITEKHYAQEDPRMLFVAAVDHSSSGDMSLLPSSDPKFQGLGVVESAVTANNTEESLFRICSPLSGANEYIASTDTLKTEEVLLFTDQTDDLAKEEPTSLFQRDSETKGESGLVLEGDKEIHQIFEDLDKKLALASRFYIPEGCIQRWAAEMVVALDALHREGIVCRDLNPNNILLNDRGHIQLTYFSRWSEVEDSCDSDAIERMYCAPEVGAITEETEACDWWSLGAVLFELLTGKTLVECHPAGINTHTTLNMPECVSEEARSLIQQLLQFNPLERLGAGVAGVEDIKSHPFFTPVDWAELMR
The method, then: Supplement 12953_2017_125_MOESM1_ESM.zip/MS_Supp Info.xlsx, sheet "KAM" | column: 10 uM KAM; 1 uM KAM; 0.1 uM KAM; 0.001 uM KAM; RB50

Another experiment has as its target T2, CDK6 (Homo sapiens, UniProt Q00534).
T2 construct: endogenous in cells; host or cells: K562
To be noted: relative to 0 uM KAM = 0. The method, then:
(§1) Supplement 12953_2017_125_MOESM1_ESM.zip/MS_Supp Info.xlsx, sheet "KAM" | column: 10 uM KAM; 1 uM KAM; 0.1 uM KAM; 0.001 uM KAM

For the next experiment, the target named is T3, MAP3K11 (Homo sapiens, UniProt Q16584).
T3 construct: endogenous in cells; host or cells: K562
The conditions noted are these: relative to 0 uM KAM = 0. The method, then:
as §1

The target of a further experiment is T4, MAP2K5 (Homo sapiens, UniProt Q13163).
T4 construct: endogenous in cells; host or cells: K562
T4 sequence (Q13163 1-448): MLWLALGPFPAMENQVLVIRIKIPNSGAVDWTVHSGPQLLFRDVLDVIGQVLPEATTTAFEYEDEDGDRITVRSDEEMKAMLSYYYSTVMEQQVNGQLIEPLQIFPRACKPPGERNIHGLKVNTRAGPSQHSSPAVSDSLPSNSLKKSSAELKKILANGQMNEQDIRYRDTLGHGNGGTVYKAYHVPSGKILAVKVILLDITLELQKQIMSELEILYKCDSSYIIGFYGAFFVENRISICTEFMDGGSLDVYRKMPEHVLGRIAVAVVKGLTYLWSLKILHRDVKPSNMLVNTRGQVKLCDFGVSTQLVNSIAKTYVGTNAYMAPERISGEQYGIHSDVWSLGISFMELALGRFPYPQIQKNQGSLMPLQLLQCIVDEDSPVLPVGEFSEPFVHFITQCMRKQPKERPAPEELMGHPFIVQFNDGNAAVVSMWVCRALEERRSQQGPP
To be noted: relative to 0 uM KAM = 0. The method, then:
Supplement 12953_2017_125_MOESM1_ESM.zip/MS_Supp Info.xlsx, sheet "KAM" | column: 10 uM KAM; 1 uM KAM; 0.1 uM KAM; 0.01 uM KAM
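Throughout, for 0.01 uM KAM: median log10 fold change of treatment over DMSO control.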

T2 sequence (Q00534 whole entry): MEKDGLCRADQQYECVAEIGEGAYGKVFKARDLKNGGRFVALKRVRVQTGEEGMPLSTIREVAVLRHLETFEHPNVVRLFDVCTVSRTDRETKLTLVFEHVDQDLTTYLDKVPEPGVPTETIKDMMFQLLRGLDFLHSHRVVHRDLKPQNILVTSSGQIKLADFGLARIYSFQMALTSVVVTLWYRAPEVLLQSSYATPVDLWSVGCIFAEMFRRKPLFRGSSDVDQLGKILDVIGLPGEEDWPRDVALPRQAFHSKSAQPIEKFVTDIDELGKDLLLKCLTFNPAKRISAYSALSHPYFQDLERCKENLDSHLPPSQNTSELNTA
T3 sequence (Q16584 whole entry): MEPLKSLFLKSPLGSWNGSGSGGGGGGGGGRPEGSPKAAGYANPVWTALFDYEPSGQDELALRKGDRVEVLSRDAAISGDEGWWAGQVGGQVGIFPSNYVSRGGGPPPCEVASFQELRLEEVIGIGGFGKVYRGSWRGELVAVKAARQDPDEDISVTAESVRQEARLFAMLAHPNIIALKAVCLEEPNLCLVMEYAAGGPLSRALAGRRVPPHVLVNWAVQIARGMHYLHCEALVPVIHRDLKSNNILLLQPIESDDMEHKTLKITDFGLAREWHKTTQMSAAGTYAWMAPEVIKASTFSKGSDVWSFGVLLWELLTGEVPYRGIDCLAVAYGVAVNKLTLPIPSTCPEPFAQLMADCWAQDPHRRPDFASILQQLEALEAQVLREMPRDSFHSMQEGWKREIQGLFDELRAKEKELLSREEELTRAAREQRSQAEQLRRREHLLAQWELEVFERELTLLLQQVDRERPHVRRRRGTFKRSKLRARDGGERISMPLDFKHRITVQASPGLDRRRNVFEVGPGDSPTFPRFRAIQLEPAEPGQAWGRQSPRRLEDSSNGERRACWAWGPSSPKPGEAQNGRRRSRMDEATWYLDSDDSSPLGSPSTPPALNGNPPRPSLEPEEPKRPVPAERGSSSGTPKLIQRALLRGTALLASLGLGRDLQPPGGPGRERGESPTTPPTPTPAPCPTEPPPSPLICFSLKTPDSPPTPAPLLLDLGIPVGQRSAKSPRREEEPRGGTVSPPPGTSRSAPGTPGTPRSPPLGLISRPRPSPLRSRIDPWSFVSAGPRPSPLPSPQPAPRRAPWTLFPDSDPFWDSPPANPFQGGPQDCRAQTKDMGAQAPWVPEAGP

On to `N#CCc1ccc(Nc2nc(NCCCN)cc(Nc3cc(C4CC4)[nH]n3)n2)cc1` [KAM], for which the IC50 at RPS6KC1 (KAM 0.001-10 uM, read-out: RB50 (the source's name)) is over 10 µM. In addition, at RPS6KC1 (relative to 0 uM KAM = 0), the “0.001 uM KAM” value is -0.005381, the “0.1 uM KAM” value is recorded as -0.07914, the “1 uM KAM” value was -0.09953 and the “10 uM KAM” value is given as -0.2964. Further, at CDK6, the “0.001 uM KAM” value is 0.01418, the “0.1 uM KAM” value is recorded as -0.05531, the “1 uM KAM” value is given as -0.08871 and the “10 uM KAM” value is listed as -0.05328. On MAP3K11, the “0.001 uM KAM” value is reported as -0.02883, the “0.1 uM KAM” value is given as -0.2112, the “1 uM KAM” value is listed as -0.4525 and the “10 uM KAM” value is reported as -0.59. On MAP2K5, the “0.01 uM KAM” value is 0.01409, the “0.1 uM KAM” value is -0.1362, the “1 uM KAM” value is reported as -0.4773 and the “10 uM KAM” value is listed as -0.5729.
